# Patent publication US20220306659A1, “COMPOUND INHIBITING AND INDUCING DEGRADATION OF EGFR AND ALK” (BEIJING TIDE PHARMACEUTICAL CO., LTD., priority 2019, published 2022)
# Target: Ba/F3(EGFR^Del19/T790M/C797S) cells (Homo sapiens, UniProt P00533, DEL746-750/T790M/C797S, cells depend on it)
# Test: Assay of activity on Ba/F3 cells (CTG, 72 h)
# Format: cell-based
# Conditions: read-out: IC50 (nM) Ba/F3 (EGFR^Del19/T790M/C797S)
# Procedure: (2) A compound stock solution was prepared, and then diluted 3× to obtain a compound dilution. 30 nL of the compound dilution was added to a 384-well plate by Echo (Labcyte, Echo550). The cells were incubated in an incubator at 37° C. and 5% CO2 for 72 h.
# The percent inhibition rate (% inhibition) was calculated by the following formula
# LUMcmpd: Luminescence value of assay compound.
# LUMpositive: Average LUM value of positive drug at a concentration of 10 μM.
# LUMvehicle. Average LUM value of negative control group without drug treatment.
# The nonlinear regression curve (dose response-variable slope) between the value of inhibition rate (%) and the logarithm of compound concentration was fitted with graphpad prism 8.0, the effect dose curve of compound was drawn, and the IC50 value was calculated.
# Y=Bottom+(Top−Bottom)/(1+1^((LogIC50−X)*HillSlope))
# X-axis: logarithm of compound concentration; Y axis: inhibition rate ([…]).
# Chain of Ba/F3(EGFR^Del19/T790M/C797S) cells (P00533 with tags, fused parts or gaps DEL746-750/T790M/C797S): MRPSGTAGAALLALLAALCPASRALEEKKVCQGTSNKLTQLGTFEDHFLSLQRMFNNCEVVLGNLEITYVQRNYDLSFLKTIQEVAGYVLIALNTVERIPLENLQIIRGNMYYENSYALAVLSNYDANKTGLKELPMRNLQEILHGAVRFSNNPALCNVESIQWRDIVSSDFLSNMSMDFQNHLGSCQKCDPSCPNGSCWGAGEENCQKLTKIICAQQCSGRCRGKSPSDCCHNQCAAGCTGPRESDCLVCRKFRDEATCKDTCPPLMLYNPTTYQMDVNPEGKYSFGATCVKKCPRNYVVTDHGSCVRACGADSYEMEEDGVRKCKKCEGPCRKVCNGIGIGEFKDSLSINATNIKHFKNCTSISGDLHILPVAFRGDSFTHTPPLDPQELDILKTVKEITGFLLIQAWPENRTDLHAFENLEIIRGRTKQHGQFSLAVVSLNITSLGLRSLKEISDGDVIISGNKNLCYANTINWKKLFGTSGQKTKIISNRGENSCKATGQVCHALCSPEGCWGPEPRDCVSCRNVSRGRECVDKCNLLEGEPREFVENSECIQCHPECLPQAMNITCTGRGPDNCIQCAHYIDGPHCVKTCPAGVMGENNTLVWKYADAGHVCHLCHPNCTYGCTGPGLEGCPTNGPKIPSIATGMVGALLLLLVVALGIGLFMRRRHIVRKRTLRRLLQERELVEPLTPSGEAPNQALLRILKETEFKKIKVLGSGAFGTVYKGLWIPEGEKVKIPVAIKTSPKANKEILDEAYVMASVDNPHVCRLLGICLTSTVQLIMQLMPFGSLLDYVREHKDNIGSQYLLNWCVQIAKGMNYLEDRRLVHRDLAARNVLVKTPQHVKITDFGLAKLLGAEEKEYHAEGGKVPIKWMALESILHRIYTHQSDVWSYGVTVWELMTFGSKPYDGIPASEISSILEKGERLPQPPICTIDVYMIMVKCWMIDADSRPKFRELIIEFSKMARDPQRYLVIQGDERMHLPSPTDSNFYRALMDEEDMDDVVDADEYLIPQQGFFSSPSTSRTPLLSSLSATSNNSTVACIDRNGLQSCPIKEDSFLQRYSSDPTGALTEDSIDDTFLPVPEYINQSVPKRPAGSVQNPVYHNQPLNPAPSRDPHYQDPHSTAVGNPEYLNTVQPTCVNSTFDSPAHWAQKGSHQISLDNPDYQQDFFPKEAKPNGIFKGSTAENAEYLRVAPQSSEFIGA
row,SMILES,GI50 [nM]
1,"COc1cc(N2CCC(N3CCN(CCCC#Cc4cccc5c4CN(C4CCC(=O)NC4=O)C5=O)CC3)CC2)ccc1Nc1ncc(Cl)c(Nc2ccccc2P(C)(C)=O)n1 (stereo not shown) [Compound C126, 3-(4-(5-(4-(1-(4-((5-chloro-4-((2-(dimethylphosphoryl)phenyl)amino)pyrimidin-2-yl)amino)-3-methoxyphenyl)piperidin-4-yl)piperazin-1-yl)pent-1-yn-1-yl)-1-oxoisoindolin-2-yl)piperidine-2,6-dione]",1 to 100
2,COc1cc(N2CCC(N3CCNCC3)CC2)c(C)cc1Nc1ncc(Br)c(Nc2ccc3nccnc3c2P(C)(C)=O)n1 [Compound C158-1],1 to 100
3,"COc1cc(N2CCC(N3CCN(CCCCCCCCC#Cc4cccc5c4CN(C4CCC(=O)NC4=O)C5=O)CC3)CC2)ccc1Nc1ncc(Cl)c(Nc2ccccc2P(C)(C)=O)n1 (stereo not shown) [Compound C179, 3-(4-(10-(4-(1-(4-((5-chloro-4-((2-(dimethylphosphoryl)phenyl)amino)pyrimidin-2-yl)amino)-3-methoxyphenyl)piperidin-4-yl)piperazin-1-yl)dec-1-yn-1-yl)-1-oxoisoindolin-2-yl)piperidine-2,6-dione]",1 to 100
4,"COc1cc(N2CCC3(CCN(CCCCCC#Cc4cc(F)cc5c4CN(C4CCC(=O)NC4=O)C5=O)CC3)CC2)c(C)cc1Nc1ncc(Br)c(Nc2ccc3nccnc3c2P(C)(C)=O)n1 (stereo not shown) [Compound C185, 3-(4-(7-(9-(4-((5-bromo-4-((5-(dimethylphosphoryl)quinoxalin-6-yl)amino)pyrimidin-2-yl)amino)-5-methoxy-2-methylphenyl)-3,9-diazaspiro[5.5]undecan-3-yl)hept-1-yn-1-yl)-6-fluoro-1-oxoisoindolin-2-yl)piperidine-2,6-dione]",1 to 100
5,"COc1cc(N2CCC(N3CCN(CCOCC#Cc4cc(C(F)(F)F)cc5c4CN(C4CCC(=O)NC4=O)C5=O)CC3)CC2)ccc1Nc1ncc(Cl)c(Nc2ccccc2P(C)(C)=O)n1 (stereo not shown) [Compound C200, 3-(4-(3-(2-(4-(1-(4-((5-chloro-4-((2-(dimethylphosphoryl)phenyl)amino)pyrimidin-2-yl)amino)-3-methoxyphenyl)piperidin-4-yl)piperazin-1-yl)ethoxy)prop-1-yn-1-yl)-1-oxo-6-(trifluoromethyl)isoindolin-2-yl)piperidine-2,6-dione]",101 to 200
6,"COc1cc(N2CCC(N3CCN(CCCCCC#Cc4cc(Cl)cc5c4CN(C4CCC(=O)NC4=O)C5=O)CC3)CC2)ccc1Nc1ncc(Cl)c(Nc2ccccc2P(C)(C)=O)n1 (stereo not shown) [Compound C202, 3-(6-chloro-4-(7-(4-(1-(4-((5-chloro-4-((2-(dimethylphosphoryl)phenyl)amino)pyrimidin-2-yl)amino)-3-methoxyphenyl)piperidin-4-yl)piperazin-1-yl)hept-1-yn-1-yl)-1-oxoisoindolin-2-yl)piperidine-2,6-dione]",1 to 100
7,"COc1cc(N2CCC(N3CCN(CCCCCC#Cc4cc(C#N)cc5c4CN(C4CCC(=O)NC4=O)C5=O)CC3)CC2)ccc1Nc1ncc(Cl)c(Nc2ccccc2P(C)(C)=O)n1 (stereo not shown) [Compound C204, 7-(7-(4-(1-(4-((5-chloro-4-((2-(dimethylphosphoryl)phenyl)amino)pyrimidin-2-yl)amino)-3-methoxyphenyl)piperidin-4-yl)piperazin-1-yl)hept-1-yn-1-yl)-2-(2,6-dioxopiperidin-3-yl)-3-oxoisoindoline-5-carbonitrile]",1 to 100
8,"COc1cc(N2CCC3(CCN(CCCCCCOc4cccc5c4CN(C4CCC(=O)NC4=O)C5=O)CC3)CC2)c(C)cc1Nc1ncc(Br)c(Nc2ccc3nccnc3c2P(C)(C)=O)n1 (stereo not shown) [Compound C212, 3-(4-((6-(9-(4-((5-bromo-4-((5-(dimethylphosphoryl)quinoxalin-6-yl)amino)pyrimidin-2-yl)amino)-5-methoxy-2-methylphenyl)-3,9-diazaspiro[5.5]undecan-3-yl)hexyl)oxy)-1-oxoisoindolin-2-yl)piperidine-2,6-dione]",1 to 100
9,"COc1cc(N2CCC(N3CCN(CCCC#Cc4ccc5c(c4)CN(C4CCC(=O)NC4=O)C5=O)CC3)CC2)ccc1Nc1ncc(Cl)c(Nc2ccccc2P(C)(C)=O)n1 (stereo not shown) [Compound C218, 3-(5-(5-(4-(1-(4-((5-chloro-4-((2-(dimethylphosphoryl)phenyl)amino)pyrimidin-2-yl)amino)-3-methoxyphenyl)piperidin-4-yl)piperazin-1-yl)pent-1-yn-1-yl)-1-oxoisoindolin-2-yl)piperidine-2,6-dione]",1 to 100
10,"COc1cc(N2CCC(N3CCN(CCCC#Cc4cccc5c4CN(C4CCC(=O)NC4=O)C5=O)CC3)CC2)c(C)cc1Nc1ncc(Br)c(Nc2ccc3nccnc3c2P(C)(C)=O)n1 (stereo not shown) [Compound C227, 3-(4-(5-(4-(1-(4-((5-bromo-4-((5-(dimethylphosphoryl)quinoxalin-6-yl)amino)pyrimidin-2-yl)amino)-5-methoxy-2-methylphenyl)piperidin-4-yl)piperazin-1-yl)pent-1-yn-1-yl)-1-oxoisoindolin-2-yl)piperidine-2,6-dione]",1 to 100
11,"COc1cc(N2CCC3(CCN(CCCC#Cc4cccc5c4CN(C4CCC(=O)NC4=O)C5=O)CC3)CC2)c(C)cc1Nc1ncc(Br)c(Nc2ccc3nccnc3c2P(C)(C)=O)n1 (stereo not shown) [Compound C228, 3-(4-(5-(9-(4-((5-bromo-4-((5-(dimethylphosphoryl)quinoxalin-6-yl)amino)pyrimidin-2-yl)amino)-5-methoxy-2-methylphenyl)-3,9-diazaspiro[5.5]undecan-3-yl)pent-1-yn-1-yl)-1-oxoisoindolin-2-yl)piperidine-2,6-dione]",1 to 100
12,"COc1cc(N2CCC(N3CCN(CCCCCC#Cc4cc(C#N)cc5c4CN(C4CCC(=O)NC4=O)C5=O)CC3)CC2)c(C)cc1Nc1ncc(Br)c(Nc2ccc3nccnc3c2P(C)(C)=O)n1 (stereo not shown) [Compound C229, 7-(7-(4-(1-(4-((5-bromo-4-((5-(dimethylphosphoryl)quinoxalin-6-yl)amino)pyrimidin-2-yl)amino)-5-methoxy-2-methylphenyl)piperidin-4-yl)piperazin-1-yl)hept-1-yn-1-yl)-2-(2,6-dioxopiperidin-3-yl)-3-oxoisoindoline-5-carbonitrile]",1 to 100
13,"COc1cc(N2CCC(N3CCN(CCCCc4ccc(-c5ccc6c(c5)CN(C5CCC(=O)NC5=O)C6=O)cc4)CC3)CC2)ccc1Nc1ncc(Cl)c(Nc2ccccc2P(C)(C)=O)n1 (stereo not shown) [Compound C236, 3-(5-(4-(4-(4-(1-(4-((5-chloro-4-((2-(dimethylphosphoryl)phenyl)amino)pyrimidin-2-yl)amino)-3-methoxyphenyl)piperidin-4-yl)piperazin-1-yl)butyl)phenyl)-1-oxoisoindolin-2-yl)piperidine-2,6-dione]",1 to 100
14,"COc1cc(N2CCC(N3CCN(CCCCCCc4cccc5c4CN(C4CCC(=O)NC4=O)C5=O)CC3)CC2)ccc1Nc1ncc(Cl)c(Nc2ccccc2P(C)(C)=O)n1 (stereo not shown) [Compound C238, 3-(4-(6-(4-(1-(4-((5-chloro-4-((2-(dimethylphosphoryl)phenyl)amino)pyrimidin-2-yl)amino)-3-methoxyphenyl)piperidin-4-yl)piperazin-1-yl)hexyl)-1-oxoisoindolin-2-yl)piperidine-2,6-dione]",1 to 100
15,"COc1cc(N2CCC(N3CCN(CCCCCCCCc4cccc5c4CN(C4CCC(=O)NC4=O)C5=O)CC3)CC2)ccc1Nc1ncc(Cl)c(Nc2ccccc2P(C)(C)=O)n1 (stereo not shown) [Compound C240, 3-(4-(8-(4-(1-(4-((5-chloro-4-((2-(dimethylphosphoryl)phenyl)amino)pyrimidin-2-yl)amino)-3-methoxyphenyl)piperidin-4-yl)piperazin-1-yl)octyl)-1-oxoisoindolin-2-yl)piperidine-2,6-dione]",1 to 100
16,"COc1cc(N2CCC(N3CCN(CCCCCC#Cc4ccc(F)c5c4CN(C4CCC(=O)NC4=O)C5=O)CC3)CC2)ccc1Nc1ncc(Cl)c(Nc2ccccc2P(C)(C)=O)n1 (stereo not shown) [Compound C243, 3-(4-(7-(4-(1-(4-((5-chloro-4-((2-(dimethylphosphoryl)phenyl)amino)pyrimidin-2-yl)amino)-3-methoxyphenyl)piperidin-4-yl)piperazin-1-yl)hept-1-yn-1-yl)-7-fluoro-1-oxoisoindolin-2-yl)piperidine-2,6-dione]",1 to 100
17,"COc1cc(N2CCC(N3CCN(CCCCCCCc4cccc5c4CN(C4CCC(=O)NC4=O)C5=O)CC3)CC2)ccc1Nc1ncc(Cl)c(Nc2ccccc2P(C)(C)=O)n1 (stereo not shown) [Compound C245, 3-(4-(7-(4-(1-(4-((5-chloro-4-((2-(dimethylphosphoryl)phenyl)amino)pyrimidin-2-yl)amino)-3-methoxyphenyl)piperidin-4-yl)piperazin-1-yl)heptyl)-1-oxoisoindolin-2-yl)piperidine-2,6-dione]",1 to 100
18,"COc1cc(N2CCC(N3CCN(CCCC#Cc4cc(C#N)cc5c4CN(C4CCC(=O)NC4=O)C5=O)CC3)CC2)ccc1Nc1ncc(Cl)c(Nc2ccccc2P(C)(C)=O)n1 (stereo not shown) [Compound C258, 7-(5-(4-(1-(4-((5-chloro-4-((2-(dimethylphosphoryl)phenyl)amino)pyrimidin-2-yl)amino)-3-methoxyphenyl)piperidin-4-yl)piperazin-1-yl)pent-1-yn-1-yl)-2-(2,6-dioxopiperidin-3-yl)-3-oxoisoindoline-5-carbonitrile]",1 to 100
19,"COc1cc(N2CCC(N3CCN(CCCCC#Cc4cc(C#N)cc5c4CN(C4CCC(=O)NC4=O)C5=O)CC3)CC2)ccc1Nc1ncc(Cl)c(Nc2ccccc2P(C)(C)=O)n1 (stereo not shown) [Compound C259, 7-(6-(4-(1-(4-((5-chloro-4-((2-(dimethylphosphoryl)phenyl)amino)pyrimidin-2-yl)amino)-3-methoxyphenyl)piperidin-4-yl)piperazin-1-yl)hex-1-yn-1-yl)-2-(2,6-dioxopiperidin-3-yl)-3-oxoisoindoline-5-carbonitrile]",1 to 100
